Laboratory results taken from patent publication US12099061B2, “Nidogen 1 as a diagnostic marker and therapeutic target of hepatocellular carcinoma, composition and methods thereof” (THE UNIVERSITY OF HONG KONG, priority 2020, dated 2024).

Test system: MHCC97L cells
Assay: EV secretion of MHCC97L cells treated with Tipifarnib
Format: cell-based, human
Settings: 1 μM Tipifarnib for 48 hr; EVs isolated from conditioned medium
Experimental: FIGS. 11A-11B Reduction of EV secretion attenuates liver tumor formation. (A) Quantification of EVs isolated from conditioned medium of MHCC97L treated with 1 μM Tipifarnib or DMSO vehicle for 48 hr. The analysis was done in triplicate. (B) Image of dissected liver of mice subjected to orthotopic liver injection of Matrigel/MHCC97L (1×10^6 cells/injection) pretreated with 48-hr DMSO or Tipifarnib (1 μM) (n=6). Measurement of tumor volume is shown. Data are represented as mean±SEM. *P<0.05 and ***P<0.001 from Student's t test.
Protein lysates were obtained by cell lysis with NETN lysis buffer (0.1% NP40, 25 mM Tris-HCl, 50 mM […], 0.2 mM EDTA), supplemented with 10% cOmplete™ protease inhibitor cocktail and 10% PhosStop phosphatase inhibitor cocktail (Roche Applied Science). Bradford reagent (Bio-Rad Corporation) using bovine serum albumin as standard concentration was used to quantify protein amount. […] Chemiluminescent signals were detected by ECL™ Western Blotting Detection Reagents (Amersham). […] The level of EV-CD63 was expressed as amount of CD63 over EV protein amount (μg/μg) (w/w). […] The amount of isolated EVs was quantified. […] After 6 weeks post injection, mice were sacrificed and liver tumor volume was measured using a caliper and calculated using the formula: volume=L×W^2×0.5 (L, the largest diameter; W, the smallest diameter). […]

Cn1cncc1[C@@](N)(c1ccc(Cl)cc1)c1ccc2c(c1)c(-c1cccc(Cl)c1)cc(=O)n2C [tipifarnib, Tipifarnib]
reduction of EV secretion from MHCC97L cells: up to 50%
